The values below come from US8258114B2, “Modulation of glucose-6-phosphatase translocase expression” (Isis Pharmaceuticals, Inc., priority 2004, dated 2012).

One data set relates to ob/ob mice. Briefly: Glycerol tolerance test in ob/ob mice. The settings on record: 25 mg/kg twice weekly, after 6th dose, glycerol 1 g/kg oral. The format is in vivo, mouse. The protocol: The mice described in Example 7 were evaluated for performance on glycerol tolerance tests after the 6th dose of saline or antisense oligonucleotides. This is a functional measure of glucose-6-phosphatase translocase inhibition; i.e., whether the conversion of […] to glucose is impaired by antisense inhibitors of glucose-6-phosphatase translocase.
Glycerol tolerance tests were performed after treatment with saline, ISIS 148985 (SEQ ID NO: 118), or ISIS 149008 (SEQ ID NO: 141). Glycerol was administered by oral gavage via an 18 g gavage needle at a dose of 1 g/kg. Plasma glucose levels were measured for 30, 60, 90 and 120 minutes post-challenge using an Ascencia Glucometer Elite XL (Bayer, Tarrytown, N.Y.) and plotted over time. Area under the curve (AUC) for each treatment graph was calculated.

In data set [1] the test system is glucose-6-phosphatase translocase mRNA. Briefly: Target mRNA reduction in liver of lean ob/ob+/- mice. In kind it is in vivo, mouse. The conditions noted are these: 50 mg/kg s.c. twice weekly, five doses. The protocol:
(§1) Ob/ob mice have a mutation in the leptin gene which results in obesity and hyperglycemia. […] Seven-week old ob/ob+/−male mice were dosed twice weekly with 50 mg/kg of antisense oligonucleotide, given subcutaneously. A total of five doses were given. glucose-6-phosphatase translocase antisense oligonucleotides used were ISIS 148985 (SEQ ID NO: 118) and ISIS 149008 (SEQ ID NO: 141). Each treatment group was comprised of 4 animals. Animals were sacrificed 48 hours after the last dose of oligonucleotide was administered, and liver triglycerides, liver glycogen content, and target reduction in liver were measured.
Glucose-6-phosphatase translocase mRNA levels in liver were measured at the end of study using RiboGreen™ RNA quantification reagent (Molecular Probes, Inc. Eugene, Oreg.) as taught in previous examples above.
Glucose-6-phosphatase translocase mRNA levels were reduced by approximately 51% in lean mice treated with ISIS 148985, and by approximately 88% in lean mice treated with ISIS 149008, when compared to saline treatment. Thus the antisense compounds ISIS 149008 and ISIS 148985 were effective in reducing liver glucose-6-phosphatase translocase mRNA levels in vivo.

Data set [2] concerns mouse glucose-6-phosphatase translocase mRNA. Briefly: Antisense inhibition of mouse glucose-6-phosphatase translocase mRNA in primary mouse hepatocytes, 50 nM (Table 5). In kind it is cell-based. The conditions noted are these: 50 nM oligonucleotide, mRNA by real-time PCR, normalized with RIBOGREEN
On the technique in general: Real-time PCR tracks product formation cycle by cycle.

Data set [3] is described as follows: Liver triglycerides and liver glycogen in lean ob/ob+/- mice. In kind it is in vivo, mouse. The settings on record: 50 mg/kg s.c. twice weekly, five doses; for Liver glycogen levels: saline approximately 37. The protocol:
as §1
Liver triglyceride levels are used to assess hepatic steatosis, or accumulation (poor clearing) of lipids in the liver. Tissue triglyceride levels were measured using a Triglyceride GPO assay from Roche Diagnostics (Indianapolis, Ind.). Liver triglycerides were about 19 mg/dL for saline treated lean mice and were about 14 mg/dL for ISIS 149008-treated lean mice.
Tissue glycogen was measured using the Glucose Trinder Reagent (Sigma-Aldrich, St. Louis, Mo.). Glycogen levels of lean mice treated with saline alone were approximately 37 mg/g of tissue. Mice treated with ISIS 149008 or 148985, the antisense inhibitors of glucose-6-phosphatase translocase, had glycogen levels of approximately 39 mg/g and 36 mg/g, respectively.

The subject of a further data set is aged Zucker fa/fa rats. In words: Plasma glucose levels of ZDF rats, alone or in combination with rosiglitazone (Table 16). The format is in vivo, rat. The protocol:
Saline-injected animals served as a control treatment group.
Plasma glucose levels were evaluated at the beginning of the study (Wk 0), during the first week of treatment (Wk 1), during the third week of treatment (Wk 3), and during the fifth week of treatment (Wk 5).

For the sequence “GCTCCATAGCGAGGACTCGA (chemistry not given here) [ISIS 148985]”, in the data set with ob/ob mice, the “decrease in AUC of plasma glucose compared to saline, glycerol tolerance test” value is given as “did not show significant decrease in AUC”. Also, in data set [1], the “Glucose-6-phosphatase translocase mRNA levels in liver, reduction compared to saline” value is given as “approximately 51%”. For the same sequence, the entries for the “% Inhib” value in data set [2] and in data set [2] (listed as 148985) were “approximately 84%” and 84%, respectively. The same sequence gave a Liver glycogen levels in data set [3] of around 36 mg/g.

“GTGCTTGGCGATGGTACTGA (chemistry not given here) [ISIS 366228]”: the “plasma glucose over the course of the study (in words)” value in the data set on aged Zucker fa/fa rats was “caused reductions in plasma glucose”.

As for “TATACAAGTCGGTTTGCCCT (chemistry not given here) [ISIS 149008]”, in the data set with ob/ob mice, the “decrease in AUC of plasma glucose compared to saline, glycerol tolerance test” value is on record as “approximately 30%”. For the same sequence, the “Glucose-6-phosphatase translocase mRNA levels in liver, reduction compared to saline” value in data set [1] is given as “approximately 88%”. Besides, in data set [2], the “% Inhib” value is on record as around 65%. In data set [3] (saline about 19), the Liver Triglycerides entry is “about 14 mg/dL”. Besides, the Liver glycogen levels entry in data set [3] is listed as “approximately 39 mg/g”.
